# Results taken from ChEMBL document CHEMBL3879901, “Substituted isoquinolin-1(2H)-ones, and methods of use thereof” (2012).
# Experiments:
# [1] = molecular target: Phosphatidylinositol 4,5-bisphosphate 3-kinase catalytic subunit gamma isoform (Homo sapiens, UniProt P48736); test: Inhibition of recombinant human C-terminal His6-tagged p110gamma expressed in insect cells using phosphatidylinositol as substrate in presence of gamma-32P-ATP after 5 mins by thin layer chromatographic method
# [2] = molecular target: PI3-kinase p110-alpha/p85-alpha (Homo sapiens, UniProt P42336); test: Inhibition of N-terminal His6-tagged recombinant full-length human p110alpha/untagged recombinant full length human p85alpha expressed in baculovirus infected Sf21 cells using phosphatidylinositol as substrate in presence of gamma-32P-ATP after 5 mins by thin layer chromatographic method
# [3] = Antiproliferative activity against Balb/c mouse splenic B cells preincubated for 30 mins followed by LPS or F(ab')2 donkey anti-mouse IgM and recombinant mouse IL4 stimulation measured after 72 hrs by Alamar Blue reduction assay; type: functional, cell-based
# [4] = molecular target: PI3K p110 beta/p85 alpha (Homo sapiens, UniProt P42338); test: Inhibition of N-terminal His6-tagged recombinant full-length human p110beta/untagged recombinant full length p85alpha expressed in baculovirus infected Sf21 cells using phosphatidylinositol as substrate in presence of gamma-32P-ATP after 5 mins by thin layer chromatographic method
# [5] = molecular target: PI3-kinase p110-delta/p85-alpha (Homo sapiens, UniProt O00329); test: Inhibition of N-terminal His6-tagged recombinant full-length human p110delta/untagged recombinant full length p85alpha expressed in baculovirus infected Sf21 cells using phosphatidylinositol as substrate in presence of gamma-32P-ATP after 5 mins by thin layer chromatographic method
# PI3-kinase p110-delta/p85-alpha, sequence (P27986 whole entry): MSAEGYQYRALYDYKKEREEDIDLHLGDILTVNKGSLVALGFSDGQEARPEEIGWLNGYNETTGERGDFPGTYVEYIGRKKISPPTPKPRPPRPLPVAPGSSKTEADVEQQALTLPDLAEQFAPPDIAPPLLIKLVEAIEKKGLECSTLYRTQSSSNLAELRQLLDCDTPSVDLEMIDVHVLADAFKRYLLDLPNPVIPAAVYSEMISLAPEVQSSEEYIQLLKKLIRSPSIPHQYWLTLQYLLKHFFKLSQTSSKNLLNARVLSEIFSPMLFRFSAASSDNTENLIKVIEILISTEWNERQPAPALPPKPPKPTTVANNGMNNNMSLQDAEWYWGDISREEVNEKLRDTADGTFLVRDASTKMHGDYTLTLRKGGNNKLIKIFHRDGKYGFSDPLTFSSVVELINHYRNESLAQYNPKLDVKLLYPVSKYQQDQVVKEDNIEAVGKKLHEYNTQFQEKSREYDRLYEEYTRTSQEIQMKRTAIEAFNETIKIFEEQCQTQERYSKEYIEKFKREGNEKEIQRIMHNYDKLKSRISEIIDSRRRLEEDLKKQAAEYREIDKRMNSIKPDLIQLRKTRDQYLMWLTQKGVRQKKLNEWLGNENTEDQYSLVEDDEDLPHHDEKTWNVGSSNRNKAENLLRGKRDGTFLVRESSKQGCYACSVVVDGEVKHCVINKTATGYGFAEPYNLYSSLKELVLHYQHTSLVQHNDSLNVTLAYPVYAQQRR
# PI3-kinase p110-delta/p85-alpha, sequence (O00329 whole entry): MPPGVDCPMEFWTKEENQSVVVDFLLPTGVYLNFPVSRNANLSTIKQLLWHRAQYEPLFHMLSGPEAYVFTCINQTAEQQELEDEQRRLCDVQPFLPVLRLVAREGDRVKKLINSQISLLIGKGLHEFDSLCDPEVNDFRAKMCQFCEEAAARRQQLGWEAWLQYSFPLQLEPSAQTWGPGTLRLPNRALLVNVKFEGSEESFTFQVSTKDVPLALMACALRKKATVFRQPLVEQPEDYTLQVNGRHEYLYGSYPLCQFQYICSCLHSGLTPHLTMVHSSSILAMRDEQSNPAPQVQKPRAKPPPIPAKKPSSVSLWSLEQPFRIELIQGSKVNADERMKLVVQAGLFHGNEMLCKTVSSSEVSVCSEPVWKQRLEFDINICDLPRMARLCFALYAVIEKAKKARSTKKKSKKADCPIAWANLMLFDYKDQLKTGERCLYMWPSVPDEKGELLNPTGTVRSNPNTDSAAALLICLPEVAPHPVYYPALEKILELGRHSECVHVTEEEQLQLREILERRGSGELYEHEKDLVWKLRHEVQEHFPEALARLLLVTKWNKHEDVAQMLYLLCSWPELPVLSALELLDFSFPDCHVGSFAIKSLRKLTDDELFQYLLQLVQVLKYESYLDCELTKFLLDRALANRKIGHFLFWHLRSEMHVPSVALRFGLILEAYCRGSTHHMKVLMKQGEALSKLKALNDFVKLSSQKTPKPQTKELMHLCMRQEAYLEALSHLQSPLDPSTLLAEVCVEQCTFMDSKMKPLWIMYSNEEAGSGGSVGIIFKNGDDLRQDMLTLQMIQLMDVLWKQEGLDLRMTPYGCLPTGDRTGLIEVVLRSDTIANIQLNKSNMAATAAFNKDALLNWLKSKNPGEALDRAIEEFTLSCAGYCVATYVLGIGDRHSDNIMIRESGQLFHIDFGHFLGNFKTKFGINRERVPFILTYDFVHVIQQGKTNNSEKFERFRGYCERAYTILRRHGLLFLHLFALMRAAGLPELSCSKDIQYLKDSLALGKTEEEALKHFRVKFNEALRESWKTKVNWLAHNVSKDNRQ
# PI3-kinase p110-alpha/p85-alpha, sequence (P27986 whole entry): as the sequence (P27986 whole entry) above
# PI3-kinase p110-alpha/p85-alpha, sequence (P42336 whole entry): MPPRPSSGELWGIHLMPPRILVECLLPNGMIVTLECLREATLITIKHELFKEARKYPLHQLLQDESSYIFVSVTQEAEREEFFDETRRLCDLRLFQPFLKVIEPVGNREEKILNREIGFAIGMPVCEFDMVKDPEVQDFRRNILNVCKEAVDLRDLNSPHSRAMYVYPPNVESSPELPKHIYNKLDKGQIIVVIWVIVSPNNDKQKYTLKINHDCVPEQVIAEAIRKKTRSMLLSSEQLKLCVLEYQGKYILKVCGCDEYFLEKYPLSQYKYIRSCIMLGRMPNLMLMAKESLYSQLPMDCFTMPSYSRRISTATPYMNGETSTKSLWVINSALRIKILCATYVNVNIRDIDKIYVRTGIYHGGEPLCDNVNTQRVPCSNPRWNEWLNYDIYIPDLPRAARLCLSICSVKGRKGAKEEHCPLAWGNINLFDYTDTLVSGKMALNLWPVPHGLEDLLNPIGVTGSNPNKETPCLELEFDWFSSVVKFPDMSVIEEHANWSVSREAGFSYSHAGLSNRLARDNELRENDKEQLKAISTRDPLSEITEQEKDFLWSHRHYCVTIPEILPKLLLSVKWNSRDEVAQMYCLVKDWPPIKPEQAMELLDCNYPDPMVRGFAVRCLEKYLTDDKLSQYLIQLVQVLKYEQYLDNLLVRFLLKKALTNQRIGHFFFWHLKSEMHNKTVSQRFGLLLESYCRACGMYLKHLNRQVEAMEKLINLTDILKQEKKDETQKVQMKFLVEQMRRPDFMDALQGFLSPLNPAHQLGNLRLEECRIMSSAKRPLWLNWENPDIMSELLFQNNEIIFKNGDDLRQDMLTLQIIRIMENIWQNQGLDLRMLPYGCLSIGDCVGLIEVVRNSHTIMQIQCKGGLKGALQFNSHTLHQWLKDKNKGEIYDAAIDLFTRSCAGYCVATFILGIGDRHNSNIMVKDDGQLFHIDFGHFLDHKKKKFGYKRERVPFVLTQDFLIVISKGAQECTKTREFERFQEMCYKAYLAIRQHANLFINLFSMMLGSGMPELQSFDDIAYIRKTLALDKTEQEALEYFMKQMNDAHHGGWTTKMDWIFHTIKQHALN
# PI3K p110 beta/p85 alpha, sequence (P27986 whole entry): as the sequence (P27986 whole entry) above
# PI3K p110 beta/p85 alpha, sequence (P42338 whole entry): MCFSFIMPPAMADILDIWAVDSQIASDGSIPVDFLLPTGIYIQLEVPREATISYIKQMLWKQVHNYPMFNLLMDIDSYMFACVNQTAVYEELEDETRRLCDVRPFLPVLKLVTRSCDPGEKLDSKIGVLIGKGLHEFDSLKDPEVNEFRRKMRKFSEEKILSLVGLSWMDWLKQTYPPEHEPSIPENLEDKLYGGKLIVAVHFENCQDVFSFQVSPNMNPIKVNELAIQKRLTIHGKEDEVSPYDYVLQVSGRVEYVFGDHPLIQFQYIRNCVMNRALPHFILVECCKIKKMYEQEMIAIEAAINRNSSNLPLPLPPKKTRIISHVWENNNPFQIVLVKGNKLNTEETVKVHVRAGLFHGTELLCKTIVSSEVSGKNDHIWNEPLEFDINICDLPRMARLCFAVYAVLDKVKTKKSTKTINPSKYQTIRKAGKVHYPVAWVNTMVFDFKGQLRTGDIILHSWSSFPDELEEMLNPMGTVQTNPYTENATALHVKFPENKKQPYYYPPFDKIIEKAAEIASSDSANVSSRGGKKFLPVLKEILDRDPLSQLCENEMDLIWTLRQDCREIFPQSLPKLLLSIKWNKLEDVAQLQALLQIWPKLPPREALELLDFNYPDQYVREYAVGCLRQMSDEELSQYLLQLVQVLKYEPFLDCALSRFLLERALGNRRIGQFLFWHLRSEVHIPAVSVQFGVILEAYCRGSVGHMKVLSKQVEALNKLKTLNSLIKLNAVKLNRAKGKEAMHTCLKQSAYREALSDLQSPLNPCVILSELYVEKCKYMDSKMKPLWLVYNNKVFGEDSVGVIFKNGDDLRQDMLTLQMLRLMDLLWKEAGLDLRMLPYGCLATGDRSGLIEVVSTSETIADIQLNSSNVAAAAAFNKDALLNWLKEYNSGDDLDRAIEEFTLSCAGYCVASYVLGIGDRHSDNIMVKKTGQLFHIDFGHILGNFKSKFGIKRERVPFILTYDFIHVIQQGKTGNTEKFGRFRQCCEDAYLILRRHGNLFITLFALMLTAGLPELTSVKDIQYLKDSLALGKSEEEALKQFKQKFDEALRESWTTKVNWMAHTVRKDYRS
# Phosphatidylinositol 4,5-bisphosphate 3-kinase catalytic subunit gamma isoform, sequence (P48736 whole entry, canonical isoform): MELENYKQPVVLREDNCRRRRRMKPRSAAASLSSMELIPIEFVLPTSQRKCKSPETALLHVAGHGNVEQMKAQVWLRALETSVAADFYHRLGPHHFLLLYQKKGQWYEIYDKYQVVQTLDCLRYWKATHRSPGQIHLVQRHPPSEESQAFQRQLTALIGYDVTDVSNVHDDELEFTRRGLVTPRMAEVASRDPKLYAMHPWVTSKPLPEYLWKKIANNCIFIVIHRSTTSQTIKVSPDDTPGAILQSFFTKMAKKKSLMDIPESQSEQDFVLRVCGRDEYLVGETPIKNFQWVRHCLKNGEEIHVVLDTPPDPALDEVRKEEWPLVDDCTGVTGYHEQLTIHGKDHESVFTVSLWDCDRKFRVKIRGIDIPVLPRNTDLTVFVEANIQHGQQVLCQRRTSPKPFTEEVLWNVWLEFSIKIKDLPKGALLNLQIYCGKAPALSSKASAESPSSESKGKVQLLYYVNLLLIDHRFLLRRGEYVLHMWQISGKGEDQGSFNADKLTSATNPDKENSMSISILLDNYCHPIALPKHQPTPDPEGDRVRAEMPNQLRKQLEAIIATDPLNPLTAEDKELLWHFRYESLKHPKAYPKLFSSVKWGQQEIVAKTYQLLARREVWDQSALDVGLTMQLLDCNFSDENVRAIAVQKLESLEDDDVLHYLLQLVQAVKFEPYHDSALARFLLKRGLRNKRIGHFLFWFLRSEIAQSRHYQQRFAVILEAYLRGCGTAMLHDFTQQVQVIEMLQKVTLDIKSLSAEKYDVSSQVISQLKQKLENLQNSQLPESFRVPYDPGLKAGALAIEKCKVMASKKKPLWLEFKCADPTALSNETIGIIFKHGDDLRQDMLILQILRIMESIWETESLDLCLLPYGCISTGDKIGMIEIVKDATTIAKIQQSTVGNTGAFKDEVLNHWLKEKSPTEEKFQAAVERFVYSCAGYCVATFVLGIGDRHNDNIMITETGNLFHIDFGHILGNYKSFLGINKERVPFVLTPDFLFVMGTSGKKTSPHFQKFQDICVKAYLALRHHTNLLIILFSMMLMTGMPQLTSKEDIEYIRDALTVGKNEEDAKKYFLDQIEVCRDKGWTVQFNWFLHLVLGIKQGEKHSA
IC50 [1] [nM],IC50 [2] [nM],IC50 [4] [nM],IC50 [5] [nM],SMILES,EC50 [3] [nM]
< 10000,> 10000,> 10000,< 1000,Cc1cccc2cc(Cn3nc(Br)c4c(N)ncnc43)n(-c3ccccc3F)c(=O)c12,< 1000
< 10000,> 10000,> 10000,< 1000,Nc1ncnc2c1c(-c1cn[nH]c1)nn2Cc1cc2cccc(F)c2c(=O)n1-c1ccccc1F,–
< 1000,> 10000,> 10000,< 1000,Cc1ccccc1-n1c(Cn2nc(C#CC3CC3)c3c(N)ncnc32)cc2cccc(C)c2c1=O,< 1000
< 1000,> 10000,> 10000,< 10000,Cc1ccccc1-n1c(Cn2nc(-c3cnn(C)c3)c3c(N)ncnc32)cc2cccc(C)c2c1=O,–
> 10000,> 10000,> 10000,< 10000,Cc1ccccc1-n1c(Cn2nc(CCC(=O)N3CCOCC3)c3c(N)ncnc32)cc2cccc(C)c2c1=O,–
< 10000,> 10000,> 10000,< 10000,Cc1cccc2cc(Cn3nc(-c4cnn(C)c4)c4c(N)ncnc43)n(-c3ccccc3F)c(=O)c12,–
< 1000,> 10000,–,< 1000,COc1ccc(-c2nn(Cc3cc4cccc(C)c4c(=O)n3-c3ccccc3F)c3ncnc(N)c23)cc1OC,< 1000
< 1000,> 10000,–,< 100,Cc1ccccc1-n1c(Cn2nc(Cl)c3c(N)ncnc32)cc2cccc(C)c2c1=O,< 1000
< 10000,> 10000,> 10000,< 1000,C=Cc1nn(Cc2cc3cccc(C)c3c(=O)n2-c2ccccc2F)c2ncnc(N)c12,–
> 10000,> 10000,> 10000,< 1000,Cc1ccccc1-n1c(Cn2nc(/C=C/C(=O)N3CCOCC3)c3c(N)ncnc32)cc2cccc(C)c2c1=O,–
< 1000,> 10000,< 10000,< 100,Cc1cccc2cc(Cn3nc(-c4cccc(O)c4)c4c(N)ncnc43)n(C3CCCC3)c(=O)c12,–
> 10000,> 10000,> 10000,< 10000,Cc1cccc2cc(Cn3nc(/C=C4/CCNC4=O)c4c(N)ncnc43)n(-c3ccccc3F)c(=O)c12,–
< 1000,–,> 10000,< 100,Cc1ccncc1-n1c(Cn2nc(I)c3c(N)ncnc32)cc2cccc(C)c2c1=O,< 1000
< 1000,> 10000,–,< 1000,Cc1ccccc1-n1c(Cn2nc(-c3ccc(Cl)cc3)c3c(N)ncnc32)cc2cccc(C)c2c1=O,< 10000
< 10000,> 10000,> 10000,< 1000,Cc1cccc2cc(Cn3nc(-c4ccn[nH]4)c4c(N)ncnc43)n(-c3ccccc3F)c(=O)c12,–
< 10000,> 10000,> 10000,< 1000,COc1cc(F)cc(-c2nn(Cc3cc4cccc(C)c4c(=O)n3-c3ccccc3C)c3ncnc(N)c23)c1,–
< 1000,–,> 10000,< 100,Cc1cccc2cc(Cn3nc(I)c4c(N)ncnc43)n(-c3ccccc3Cl)c(=O)c12,< 1000
> 10000,> 10000,> 10000,< 10000,Cc1ccccc1-n1c(Cn2nc(CN3CCOCC3)c3c(N)ncnc32)cc2cccc(C)c2c1=O,–
< 100,–,–,< 100,Cc1ccccc1-n1c(Cn2nc(C(F)F)c3c(N)ncnc32)cc2cccc(C)c2c1=O,< 100
< 10000,> 10000,< 10000,< 100,Cc1cccc2cc(Cn3nc(C#C[C@@H](C)O)c4c(N)ncnc43)n(C3CCCC3)c(=O)c12,–
< 10000,> 10000,> 10000,< 1000,Cc1ccccc1-n1c(Cn2nc(CCC(N)=O)c3c(N)ncnc32)cc2cccc(C)c2c1=O,–
> 10000,–,–,< 1000,Cc1cccc2cc(Cn3nc(C#CC4CC4)c4c(N)ncnc43)n(-c3ccccc3F)c(=O)c12,< 1000
< 1000,–,–,< 100,Cc1cccc2cc(Cn3nc(I)c4c(N)ncnc43)n(-c3ccccc3F)c(=O)c12,< 10000

# The next lines start with the compound.
SMILES,IC50 [1] [nM],IC50 [2] [nM],IC50 [4] [nM],IC50 [5] [nM],EC50 [3] [nM]
Cc1cccnc1-n1c(Cn2nc(-c3cccc(O)c3)c3c(N)ncnc32)cc2cccc(C)c2c1=O,< 1000,> 10000,> 10000,< 100,< 100
Cc1cccc2cc([C@H](C)Nc3ncnc4[nH]nc(C(N)=O)c34)n(C3CC3)c(=O)c12,< 100,–,< 100,< 100,–
Cc1cccc2cc([C@H](C)Nc3ncnc4[nH]cc(C#N)c34)n(-c3ccccc3)c(=O)c12,< 100,–,< 100,< 100,–
Cc1cccc2cc(Cn3nc(-c4cccc(O)c4)c4c(N)ncnc43)n(-c3ccccc3OCCN3CCOCC3)c(=O)c12,< 1000,> 10000,> 10000,< 100,< 100
Cc1ccccc1-n1c(Cn2nc(-c3cccc(O)c3)c3c(N)ncnc32)cc2ccccc2c1=O,< 1000,> 10000,–,< 100,< 1000
Cc1cccc2cc([C@H](C)Nc3ncnc4[nH]cc(C(N)=O)c34)n(-c3ccccc3)c(=O)c12,< 100,–,< 100,< 100,–
CC(=O)Nc1nc2cc(-c3nn(Cc4cc5cccc(C)c5c(=O)n4-c4ccccc4)c4ncnc(N)c34)ccc2o1,< 100,–,< 100,< 100,< 100
Cc1cccc2cc([C@H](C)Nc3ncnc4[nH]cc(F)c34)n(-c3ccccc3)c(=O)c12,< 100,–,< 100,< 100,< 100
Cc1cccc2cc([C@H](C)Nc3ncnc4[nH]cc(F)c34)n(C3CC3)c(=O)c12,< 100,–,< 100,< 100,< 100
Cc1cccc2cc([C@H](C)Nc3ncnc4[nH]cc(Br)c34)n(-c3ccccc3)c(=O)c12,< 100,–,< 100,< 100,< 100
Cc1cccc2cc(Cn3nc(-c4ccc5nc(N)sc5c4)c4c(N)ncnc43)n(-c3ccccc3)c(=O)c12,< 100,< 100000,–,< 100,< 100
Cc1cccc2cc([C@H](C)Nc3ncnc4[nH]cnc34)n(C3CC3)c(=O)c12,< 100,–,< 100,< 100,< 100
Cc1cccc2cc([C@H](C)Nc3ncnc4[nH]cc(Br)c34)n(C3CC3)c(=O)c12,< 100,–,< 100,< 100,–
Cc1cccnc1-n1c(Cn2nc(Br)c3c(N)ncnc32)cc2cccc(C)c2c1=O,< 10000,> 10000,–,< 1000,< 100
Cc1cccc2cc([C@H](C)Nc3ncnc4[nH]ccc34)n(C3CC3)c(=O)c12,< 100,–,< 100,< 100,–
Cc1ccccc1-n1c(Cn2nc(-c3cnn(CCO)c3)c3c(N)ncnc32)cc2cccc(C)c2c1=O,< 1000,> 10000,> 10000,–,< 1000
Cc1cccc2cc([C@H](C)Nc3ncnc4[nH]cc(C#N)c34)n(C3CC3)c(=O)c12,< 100,–,< 100,< 100,< 100
Cc1cccc2cc([C@H](C)Nc3ncnc4[nH]nc(C#N)c34)n(-c3ccccc3)c(=O)c12,< 100,–,< 100,< 100,< 100
C[C@H](Nc1ncnc2[nH]cnc12)c1cc2cccc(Cl)c2c(=O)n1C1CC1,< 100,–,< 100,< 100,< 100
Cc1cccnc1-n1c(Cn2nc(Cl)c3c(N)ncnc32)cc2cccc(C)c2c1=O,> 10000,> 10000,–,< 1000,< 1000
Cc1cccc2cc([C@H](C)Nc3ncnc4[nH]cc(Cl)c34)n(-c3ccccc3)c(=O)c12,< 100,–,< 100,< 100,–
CCN(Cc1cc2cccc(C)c2c(=O)n1-c1ccccc1C)c1ncnc2[nH]cnc12,< 10000,> 10000,> 10000,< 10000,–
Cc1cccc2cc([C@H](C)Nc3ncnc4[nH]cc(C(N)=O)c34)n(C3CC3)c(=O)c12,< 100,–,< 100,< 100,–
Cc1ccccc1-n1c(CN(C)c2ncnc3[nH]cnc23)cc2cccc(C)c2c1=O,< 10000,> 10000,> 10000,–,–
Cc1cccc2cc(Cn3nc(-c4ccc5oc(N)nc5c4)c4c(N)ncnc43)n(C3CC3)c(=O)c12,< 100,< 100000,–,< 100,< 100
CC(=O)Nc1nc2cc(-c3nn(Cc4cc5cccc(C)c5c(=O)n4-c4ccccc4C)c4ncnc(N)c34)ccc2o1,< 100,–,–,< 100,< 100
Cc1cccc2cc([C@H](C)Nc3ncnc4[nH]nc(C(N)=O)c34)n(-c3ccccc3)c(=O)c12,< 100,–,< 100,< 100,< 100
Cc1cccc2cc(Cn3nc(I)c4c(N)ncnc43)n(C(C)C)c(=O)c12,> 10000,> 10000,> 10000,100 to 10000,–
